Test results from ChEMBL document CHEMBL1201862, “PubChem BioAssay data set” (2004).
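Compound exposure: 48 hours, 5 concentrations, 96-well plates. GI50 = concentration required for 50% inhibition of growth.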 The source made the active and inactive calls. No stated cut-off is given here; in the data, active = GI50 up to about 1.1 µM and inactive = higher.

Tests used:
Experiment in all cases: NCI anticancer screen, dose series, 48 h
PC-3 = tested on: PC-3
CCRF-CEM = tested on: CCRF-CEM
OVCAR-3 = tested on: OVCAR-3
SN12C = tested on: SN12C
SF-539 = tested on: SF-539
786-0 = tested on: 786-0
NCI-H226 = tested on: NCI-H226
SF-295 = tested on: SF-295
HCT-116 = tested on: HCT-116
SK-MEL-5 = tested on: SK-MEL-5
MCF7 = tested on: MCF7
MOLT-4 = tested on: MOLT-4
SF-268 = tested on: SF-268
IGROV-1 = tested on: IGROV-1
A549 = tested on: A549
HOP-62 = tested on: HOP-62
SK-OV-3 = tested on: SK-OV-3
M14 = tested on: M14
A498 = tested on: A498

Measured: GI50

COc1cccc(-c2cc(O)c3cc(N4CCCC4)ccc3n2)c1
active: PC-3 < 0.001 µM | CCRF-CEM < 0.001 µM | OVCAR-3 < 0.001 µM | SN12C < 0.001 µM | SF-539 < 0.001 µM | 786-0 < 0.001 µM | NCI-H226 < 0.001 µM | SF-295 < 0.001 µM | HCT-116 < 0.001 µM | SK-MEL-5 < 0.001 µM | MCF7 0.0394 µM | MOLT-4 < 0.001 µM | SF-268 < 0.001 µM | IGROV-1 0.005 µM | A549 < 0.001 µM | HOP-62 < 0.001 µM | SK-OV-3 < 0.001 µM | M14 < 0.001 µM

COc1ccc(C2Oc3ccc(Cl)cc3C=C2[N+](=O)[O-])cc1 (configuration not stated)
inactive: PC-3 > 100 µM | CCRF-CEM > 100 µM | OVCAR-3 > 100 µM | SN12C > 100 µM | 786-0 > 100 µM | SF-295 > 100 µM | HCT-116 > 100 µM | SK-MEL-5 > 100 µM | MCF7 > 100 µM | MOLT-4 > 100 µM | SF-268 > 100 µM | IGROV-1 > 100 µM | A549 > 100 µM | HOP-62 > 100 µM | SK-OV-3 > 100 µM | M14 > 100 µM

O=C1CCN2C(=O)CCN12
inactive: CCRF-CEM > 100 µM | OVCAR-3 > 100 µM | SN12C > 100 µM | 786-0 > 100 µM | NCI-H226 > 100 µM | SF-295 > 100 µM | HCT-116 > 100 µM | A498 > 100 µM | MOLT-4 > 100 µM | SF-268 > 100 µM | A549 > 100 µM | HOP-62 > 100 µM | SK-OV-3 > 100 µM | M14 > 100 µM

CC(=O)C(C)(C)CCC(C)(C)C(C)=O
inactive: PC-3 > 100 µM | CCRF-CEM > 100 µM | SN12C > 100 µM | SF-539 > 100 µM | 786-0 > 100 µM | NCI-H226 > 100 µM | SF-295 > 100 µM | HCT-116 > 100 µM | SK-MEL-5 > 100 µM | MCF7 > 100 µM | MOLT-4 > 100 µM | SF-268 > 100 µM | IGROV-1 > 100 µM | A549 > 100 µM | HOP-62 > 100 µM | SK-OV-3 > 100 µM | M14 > 100 µM

Cc1nc(-c2cc3ccccc3oc2=O)cs1
inactive: PC-3 > 100 µM | CCRF-CEM > 100 µM | SN12C > 100 µM | SF-539 70 µM | 786-0 34 µM | NCI-H226 30.3 µM | SF-295 35.5 µM | HCT-116 96.2 µM | SK-MEL-5 > 100 µM | MCF7 > 100 µM | MOLT-4 > 100 µM | SF-268 42.9 µM | IGROV-1 17.1 µM | A549 > 100 µM | HOP-62 16.6 µM | SK-OV-3 > 100 µM | M14 > 100 µM

C/C(CCN(C)C)=N/O
active: CCRF-CEM 0.194 µM | HCT-116 0.531 µM | MOLT-4 0.328 µM | M14 0.859 µM
inactive: OVCAR-3 1.29 µM | SN12C 14.3 µM | SF-539 1.14 µM | 786-0 2.81 µM | NCI-H226 30 µM | SF-295 26.8 µM | SF-268 1.49 µM | IGROV-1 18.9 µM | A549 1.6 µM | HOP-62 1.77 µM | SK-OV-3 17.9 µM

N#Cc1c(N2CCCC2)nsc1Nc1ccc(F)cc1
inactive: PC-3 > 100 µM | CCRF-CEM > 100 µM | OVCAR-3 > 100 µM | SN12C > 100 µM | SF-539 > 100 µM | 786-0 > 100 µM | NCI-H226 > 100 µM | SF-295 > 100 µM | HCT-116 > 100 µM | SK-MEL-5 > 100 µM | A498 > 100 µM | MOLT-4 > 100 µM | SF-268 > 100 µM | IGROV-1 > 100 µM | A549 > 100 µM | HOP-62 > 100 µM | SK-OV-3 61.2 µM | M14 > 100 µM

CCCC(CCC(N)=O)(CCC(N)=O)[N+](=O)[O-]
inactive: PC-3 > 100 µM | CCRF-CEM > 100 µM | SN12C > 100 µM | SF-539 > 100 µM | 786-0 > 100 µM | NCI-H226 > 100 µM | SF-295 > 100 µM | HCT-116 > 100 µM | SK-MEL-5 > 100 µM | MCF7 > 100 µM | MOLT-4 > 100 µM | SF-268 > 100 µM | IGROV-1 > 100 µM | A549 > 100 µM | SK-OV-3 > 100 µM | M14 > 100 µM

COc1ccc(/C=c2\c(=O)[nH]c3nc4ccccc4c(=O)n23)cc1
inactive: PC-3 > 100 µM | CCRF-CEM 39.9 µM | OVCAR-3 81.5 µM | SN12C 55.1 µM | SF-539 46.5 µM | 786-0 99.5 µM | NCI-H226 74.6 µM | SF-295 > 100 µM | HCT-116 70 µM | SK-MEL-5 73.6 µM | MCF7 49.9 µM | MOLT-4 56.5 µM | SF-268 > 100 µM | IGROV-1 68.4 µM | A549 91.4 µM | HOP-62 > 100 µM | SK-OV-3 > 100 µM | M14 75.2 µM

COCc1nc2c(OC)c(-c3nc4ccc(N5CCN(C)CC5)nc4[nH]3)cc(OC)c2n1C
inactive: PC-3 21.2 µM | CCRF-CEM 21 µM | OVCAR-3 53.6 µM | SN12C 80 µM | SF-539 12.3 µM | 786-0 43.7 µM | NCI-H226 22.4 µM | SF-295 32.1 µM | HCT-116 41.3 µM | MOLT-4 16.4 µM | SF-268 45.2 µM | IGROV-1 43.8 µM | A549 35.7 µM | HOP-62 42.3 µM | SK-OV-3 66.5 µM | M14 21.3 µM

CSc1nc(=O)cnn1C
inactive: PC-3 > 100 µM | CCRF-CEM > 100 µM | OVCAR-3 > 100 µM | SN12C > 100 µM | 786-0 > 100 µM | NCI-H226 > 100 µM | SF-295 > 100 µM | HCT-116 > 100 µM | SK-MEL-5 > 100 µM | MCF7 > 100 µM | MOLT-4 > 100 µM | SF-268 > 100 µM | IGROV-1 > 100 µM | A549 > 100 µM | HOP-62 > 100 µM | SK-OV-3 > 100 µM | M14 > 100 µM

CC(=O)Nc1ccc(/N=N\c2c(O)c(S(=O)(=O)O)cc3cc(S(=O)(=O)O)ccc23)cc1
inactive: PC-3 > 100 µM | OVCAR-3 > 100 µM | SN12C > 100 µM | 786-0 > 100 µM | NCI-H226 > 100 µM | SF-295 > 100 µM | HCT-116 > 100 µM | SK-MEL-5 > 100 µM | SF-268 > 100 µM | IGROV-1 > 100 µM | A549 > 100 µM | HOP-62 > 100 µM | SK-OV-3 > 100 µM | M14 > 100 µM

O=C(O)c1ccccc1NS(=O)(=O)c1ccc([N+](=O)[O-])cc1
inactive: CCRF-CEM > 100 µM | OVCAR-3 > 100 µM | SN12C > 100 µM | SF-539 > 100 µM | 786-0 > 100 µM | NCI-H226 > 100 µM | SF-295 > 100 µM | HCT-116 > 100 µM | SK-MEL-5 > 100 µM | MOLT-4 > 100 µM | SF-268 > 100 µM | IGROV-1 > 100 µM | A549 > 100 µM | HOP-62 > 100 µM | SK-OV-3 > 100 µM | M14 > 100 µM
